In brackets after ≈: the same amount, converted by molar mass.

Common to all, as to assay type: functional
Assay [1] deals with Aspergillus fumigatus. Nature of the assay: Antifungal activity against Aspergillus fumigatus hyphae.
For assay [2], the system named is Aspergillus niger. Nature of the assay: Antifungal activity against Aspergillus niger hyphae.
The subject of assay [3] is Aspergillus fumigatus. Nature of the assay: Antifungal activity against Aspergillus fumigatus conidia.
The test system of assay [4] is Aspergillus flavus. Nature of the assay: Antifungal activity against Aspergillus flavus hyphae.
The test system of assay [5] is Aspergillus terreus. Nature of the assay: Antifungal activity against Aspergillus terreus conidia.
For assay [6], the system named is Aspergillus flavus. Nature of the assay: Antifungal activity against Aspergillus flavus conidia.
The subject of assay [7] is Aspergillus terreus. Nature of the assay: Antifungal activity against Aspergillus terreus hyphae.
For assay [8], the system named is Aspergillus niger. The assay is described as follows: Antifungal activity against Aspergillus niger conidia.

For the compound `C[C@@H]1[C@H](O)[C@@H](C)/C=C/C=C/C=C/C=C/C=C/C=C/C=C/[C@H](O[C@@H]2O[C@H](C)[C@@H](O)[C@H](N)[C@@H]2O)C[C@@H]2O[C@](O)(C[C@@H](O)C[C@@H](O)[C@H](O)CC[C@@H](O)C[C@@H](O)CC(=O)O[C@H]1C)C[C@H](O)[C@H]2C(=O)O` [AMPHOTERICIN B], the MIC90 in the assay on Aspergillus fumigatus [1] stood at 2.5 µg/mL (≈ 2.71 µM); against Aspergillus niger [2] it was 5 µg/mL (≈ 5.41 µM); in the assay on Aspergillus fumigatus [3], 0.625 µg/mL (≈ 0.676 µM); in the assay with Aspergillus flavus [4] it was 2.5 µg/mL (≈ 2.71 µM); against Aspergillus terreus [5], 2.5 µg/mL (≈ 2.71 µM); against Aspergillus flavus [6], 1.25 µg/mL (≈ 1.35 µM). For the same compound, the MIC90 turned out to be 5 µg/mL (≈ 5.41 µM) in the assay on Aspergillus terreus [7] and 1.25 µg/mL (≈ 1.35 µM) with Aspergillus niger [8].
For `CC[C@@H]([C@H](C)O)n1ncn(-c2ccc(N3CCN(c4ccc(OC[C@@H]5CO[C@@](Cn6cncn6)(c6ccc(F)cc6F)C5)cc4)CC3)cc2)c1=O` [POSACONAZOLE], the MIC90 was found to be 0.5 µg/mL (≈ 0.713 µM) against Aspergillus fumigatus [1]; 1 µg/mL (≈ 1.43 µM) in the assay on Aspergillus niger [2]; 0.125 µg/mL (≈ 0.178 µM) in the assay on Aspergillus fumigatus [3]; 0.5 µg/mL (≈ 0.713 µM) against Aspergillus flavus [4]; 0.25 µg/mL (≈ 0.357 µM) in the assay with Aspergillus terreus [5]; 0.125 µg/mL (≈ 0.178 µM) with Aspergillus flavus [6]. Also, the MIC90 was 1 µg/mL (≈ 1.43 µM) in the assay with Aspergillus terreus [7] and 0.25 µg/mL (≈ 0.357 µM) in the assay with Aspergillus niger [8].
Take `C[C@@H](c1ncncc1F)[C@](O)(Cn1cncn1)c1ccc(F)cc1F` [VORICONAZOLE]: the MIC90 was 1 µg/mL (≈ 2.86 µM) with Aspergillus fumigatus [1]; 2 µg/mL (≈ 5.73 µM) against Aspergillus niger [2]; 0.125 µg/mL (≈ 0.358 µM) against Aspergillus fumigatus [3]; 2 µg/mL (≈ 5.73 µM) against Aspergillus flavus [4]; 0.5 µg/mL (≈ 1.43 µM) in the assay on Aspergillus terreus [5]; 0.5 µg/mL (≈ 1.43 µM) with Aspergillus flavus [6]. Also, the MIC90 against Aspergillus terreus [7] came out at 1 µg/mL (≈ 2.86 µM); with Aspergillus niger [8], 0.5 µg/mL (≈ 1.43 µM).
